# Data taken from ChEMBL document CHEMBL4680217, “Discovery of PROTAC BCL-X degraders as potent anticancer agents with low on-target platelet toxicity” (Eur J Med Chem, 2020).
# Calls of active or inactive are those of the source. No cut-off for these calls is given here.
# Columns and labels:
# MOLT-4 [1] = experiment: Induction of apoptosis in human MOLT-4 cells assessed as late apoptotic cells at 10 nM measured after 48 hrs by Alexa Fluor 647-Annexin V/propidium iodide staining based flow cytometry (reference value: 1.1 to 1.4%); assay type: functional
# MOLT-4 [2] = experiment: Induction of apoptosis in human MOLT-4 cells assessed as early apoptotic cells at 100 nM measured after 48 hrs by Alexa Fluor 647-Annexin V/propidium iodide staining based flow cytometry (reference value: 1.5 to 1.7%); assay type: functional
# MOLT-4 [3] = experiment: Induction of apoptosis in human MOLT-4 cells assessed as late apoptotic cells at 100 nM measured after 48 hrs in presence of pan-caspase inhibitor QVD by Alexa Fluor 647-Annexin V/propidium iodide staining based flow cytometry (reference value: 1.1 to 1.4%); assay type: functional
# [4] = target: T1, Protein cereblon/Zinc finger protein Aiolos (Homo sapiens) (UniProt Q96SW2+Q9UKT9); experiment: Protac activity at CRBN/IKZF3 in human MOLT-4 cells assessed as induction of IKZF3 degradation at 10 nM measured after 16 hrs by immunoblotting analysis; assay type: cell-based
# MOLT-4 [5] = experiment: Induction of apoptosis in human MOLT-4 cells assessed as increase in cleaved PARP expression measured after 16 hrs by immunoblotting analysis; assay type: functional, cell-based
# [6] = target: T2, Protein cereblon/Bcl-2-like protein 1 (Homo sapiens, UniProt Q07817+Q96SW2); experiment: Protac activity at CRBN/BCL-XL in human platelet assessed as induction of BCL-XL degradation up to 1 uM measured after 16 hrs by immunoblotting analysis; conditions: dose microM <=1, time 16.0 hrs
# MOLT-4 [7] = experiment: Induction of apoptosis in human MOLT-4 cells assessed as necrotic cells at 10 nM measured after 48 hrs by Alexa Fluor 647-Annexin V/propidium iodide staining based flow cytometry (reference value: 0.3 to 0.4%); assay type: functional
# [8] = target: T1, Protein cereblon/Zinc finger protein Aiolos (Homo sapiens); experiment: Protac activity at CRBN/IKZF3 in human MOLT-4 cells assessed as induction of IKZF3 degradation at 100 nM measured after 16 hrs by immunoblotting analysis; assay type: cell-based
# [9] = target: Protein cereblon/Apoptosis regulator Bcl-2 (Homo sapiens) (UniProt P10415+Q96SW2); experiment: Protac activity at CRBN/BCL2 in human MOLT-4 cells assessed as induction of BCL2 degradation at 50 nM measured after 16 hrs by immunoblotting analysis; assay type: cell-based
# [10] = Toxicity in human platelet assessed as reduction in cell viability measured after 48 hrs by MTS assay; assay type: tissue-based; conditions: human platelets
# MOLT-4 [11] = experiment: Induction of apoptosis in human MOLT-4 cells assessed as viable cells at 100 nM measured after 48 hrs in presence of pan-caspase inhibitor QVD by Alexa Fluor 647-Annexin V/propidium iodide staining based flow cytometry (reference value: 97.1 to 97.3%); assay type: functional; conditions: read-out: Activity
# MOLT-4 [12] = experiment: Induction of apoptosis in human MOLT-4 cells assessed as increase in cleaved caspase-3 expression measured after 16 hrs by immunoblotting analysis; assay type: functional, cell-based
# [13] = target: T2, Protein cereblon/Bcl-2-like protein 1; experiment: Protac activity at CRBN/BCL-XL in human MOLT-4 cells assessed as induction of BCL-XL degradation at 10 to 100 nM measured after 16 hrs in presence of competitive CRBN ligand pomalidomide by immunoblotting analysis; assay type: cell-based; conditions: dose 10-100 nM
# [14] = target: T2, Protein cereblon/Bcl-2-like protein 1; experiment: Protac activity at CRBN/BCL-XL in human MOLT-4 cells assessed as induction of BCL-XL degradation at 3.7 to 300 nM measured after 16 hrs in presence of proteasome inhibitor MG-132 by immunoblotting analysis; assay type: cell-based; conditions: dose 3.7-300 nM
# NCI-H146 = experiment: Antiproliferative activity against human NCI-H146 cells assessed as reduction in cell viability measured after 48 hrs by MTS assay; assay type: functional, cell-based; conditions: NCI-H146, 48 h
# MOLT-4 [15] = experiment: Induction of apoptosis in human MOLT-4 cells assessed as necrotic cells at 100 nM measured after 48 hrs in presence of pan-caspase inhibitor QVD by Alexa Fluor 647-Annexin V/propidium iodide staining based flow cytometry (reference value: 0.3 to 0.4%); assay type: functional
# [16] = target: T3, Cereblon/Ikaros (Homo sapiens) (UniProt Q96SW2+Q13422); experiment: Protac activity at CRBN/IKZF1 in human MOLT-4 cells assessed as induction of IKZF1 degradation at 10 nM measured after 16 hrs by immunoblotting analysis; assay type: cell-based
# MOLT-4 [17] = experiment: Induction of apoptosis in human MOLT-4 cells assessed as viable cells at 10 nM measured after 48 hrs by Alexa Fluor 647-Annexin V/propidium iodide staining based flow cytometry (reference value: 97.1 to 97.3%); assay type: functional; conditions: read-out: Activity
# [18] = target: T2, Protein cereblon/Bcl-2-like protein 1; experiment: Protac activity at CRBN/BCL-XL in human MOLT-4 cells assessed as induction of BCL-XL degradation measured after 16 hrs by immunoblotting analysis; assay type: cell-based
# [19] = target: T2, Protein cereblon/Bcl-2-like protein 1; experiment: Protac activity at CRBN/BCL-XL in human MOLT-4 cells assessed as induction of BCL-XL degradation at 100 nM measured after 8 hrs by immunoblotting analysis relative to control; assay type: cell-based
# MOLT-4 [20] = experiment: Induction of apoptosis in human MOLT-4 cells assessed as viable cells at 100 nM measured after 48 hrs by Alexa Fluor 647-Annexin V/propidium iodide staining based flow cytometry (reference value: 97.1 to 97.3%); assay type: functional; conditions: read-out: Activity
# MOLT-4 [21] = experiment: Antiproliferative activity against human MOLT-4 cells assessed as reduction in cell viability measured after 48 hrs by MTS assay; assay type: functional, cell-based; conditions: MOLT-4, 48 h
# [22] = Ratio of IC50 for human MOLT-4 cells in presence of pomalidomide to IC50 for human MOLT-4 cells; assay type: functional
# [23] = Selectivity index, ratio of IC50 for human platelet to IC50 for human MOLT-4 cells
# MOLT-4 [24] = experiment: Induction of apoptosis in human MOLT-4 cells assessed as necrotic cells at 100 nM measured after 48 hrs by Alexa Fluor 647-Annexin V/propidium iodide staining based flow cytometry (reference value: 0.3 to 0.4%); assay type: functional
# [25] = target: T3, Cereblon/Ikaros (Homo sapiens); experiment: Protac activity at CRBN/IKZF1 in human MOLT-4 cells assessed as induction of IKZF1 degradation at 100 nM measured after 16 hrs by immunoblotting analysis; assay type: cell-based
# MOLT-4 [26] = experiment: Induction of apoptosis in human MOLT-4 cells assessed as late apoptotic cells at 100 nM measured after 48 hrs by Alexa Fluor 647-Annexin V/propidium iodide staining based flow cytometry (reference value: 1.1 to 1.4%); assay type: functional
# [27] = target: T2, Protein cereblon/Bcl-2-like protein 1; experiment: Protac activity at CRBN/BCL-XL in human MOLT-4 cells assessed as induction of BCL-XL degradation by measuring remaining BCL-XL level at 50 nM measured after 16 hrs by immunoblotting analysis relative to control; assay type: cell-based
# [28] = target: T2, Protein cereblon/Bcl-2-like protein 1; experiment: Protac activity at CRBN/BCL-XL in human MOLT-4 cells assessed as induction of BCL-XL degradation at 100 nM preincubated for 16 hrs followed by compound washout by immunoblotting analysis; assay type: cell-based
# RS4-11 = experiment: Antiproliferative activity against human RS4-11 cells assessed as reduction in cell viability measured after 48 hrs by MTS assay; assay type: functional, cell-based; conditions: RS4-11, 48 h
# [29] = target: T2, Protein cereblon/Bcl-2-like protein 1; experiment: Protac activity at CRBN/BCL-XL in human MOLT-4 cells assessed as induction of BCL-XL degradation at 100 nM measured within 2 hrs by immunoblotting analysis; assay type: cell-based
# MOLT-4 [30] = experiment: Induction of apoptosis in human MOLT-4 cells assessed as early apoptotic cells at 10 nM measured after 48 hrs by Alexa Fluor 647-Annexin V/propidium iodide staining based flow cytometry (reference value: 1.5 to 1.7%); assay type: functional
# MOLT-4 [31] = experiment: Induction of apoptosis in human MOLT-4 cells assessed as early apoptotic cells at 100 nM measured after 48 hrs in presence of pan-caspase inhibitor QVD by Alexa Fluor 647-Annexin V/propidium iodide staining based flow cytometry (reference value: 1.5 to 1.7%); assay type: functional
# MOLT-4 [32] = experiment: Potency index, ratio of ABT-263 IC50 to test compound IC50 for antiproliferative activity against human MOLT-4 cells assessed as reduction in cell viability measured after 48 hrs by MTS assay; assay type: functional
compound,measurement,setting,value
CN(CCOCCOCCOCCNc1cccc2c1C(=O)N([C@@H]1CCC(=O)NC1=O)C2=O)CC[C@H](CSc1ccccc1)Nc1ccc(S(=O)(=O)NC(=O)c2ccc(N3CCN(CC4=C(c5ccc(Cl)cc5)CCC(C)(C)C4)CC3)cc2)cc1S(=O)(=O)C(F)(F)F,Activity,MOLT-4 [1],18.7%
same,Activity,MOLT-4 [2],45.5%
same,Activity,MOLT-4 [3],56.7%
same,Activity,[4],inactive
same,Activity,MOLT-4 [5],Dose-dependent effect
same,Activity,[6],inactive
same,Activity,MOLT-4 [7],1%
same,Activity,[8],Active
same,Activity,[9],inactive
same,IC50 at 48 h,[10],1220 nM
same,viability at 0.1 µM,MOLT-4 [11],23.1%
same,Activity,MOLT-4 [12],Dose-dependent effect
same,Activity,[13],inactive
same,Activity,[14],inactive
same,IC50,NCI-H146,25.3 nM
same,Activity,MOLT-4 [15],1.3%
same,Activity,[16],inactive
same,viability at 0.01 µM,MOLT-4 [17],21.9%
same,Activity,[18],Dose-dependent effect
same,DC50,[18],2.5 nM
same,Activity,[19],> 96%
same,viability at 0.1 µM,MOLT-4 [20],1.4%
same,IC50,MOLT-4 [21],10.1 nM
same,Ratio IC50,[22],27
same,Ratio IC50,[23],120
same,Activity,MOLT-4 [24],0.2%
same,Activity,[25],Active
same,Activity,MOLT-4 [26],52.7%
same,Activity,[27],4%
same,Activity,[28],inactive
same,IC50,RS4-11,41.8 nM
same,Activity,[29],Active
same,Activity,MOLT-4 [30],58.1%
same,Activity,MOLT-4 [31],18.7%
same,Ratio IC50,MOLT-4 [32],22
